Drawing on publication PMC7313459, “Insights into the Mn^2+ Binding Site in the Agmatinase-Like Protein (ALP): A Critical Enzyme for the Regulation of Agmatine Levels in Mammals” (International Journal of Molecular Sciences, 2020), this text covers Km for one compound.

Each structure is given as a SMILES string.

The experiment addresses T1, central-ALP (Rattus norvegicus, UniProt A0A8I6ASI2).
T1 construct: gene Limch1
Nature of the experiment: urea formation, colorimetric (alpha-isonitrosopropiophenone, […] nm). The experiment is classed as biochemical. The note with it: 5 mM MnCl2, 50 mM glycine-NaOH pH 9.0, 37 °C; not pre-heated.

The term Km denotes the substrate concentration at which the rate is half of its maximum.

T1 sequence (A0A8I6ASI2 141-351): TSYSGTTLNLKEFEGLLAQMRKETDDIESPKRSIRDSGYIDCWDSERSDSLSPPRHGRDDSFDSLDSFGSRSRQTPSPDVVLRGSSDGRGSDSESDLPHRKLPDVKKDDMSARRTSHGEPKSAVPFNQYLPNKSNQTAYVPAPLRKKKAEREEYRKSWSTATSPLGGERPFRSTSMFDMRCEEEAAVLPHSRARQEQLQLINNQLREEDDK

In the case of `N=C(N)NCCCCN` [agmatine, 1-amino-4-guanidinobutane], the Km stood at 1200 ± 370 µM.
